Our source for the EC50 values is ChEMBL document CHEMBL1151381, “Aporphine Alkaloids From Annona acuminata” (1982).

Converted amounts (≈) assume the structure as drawn. Some results are limits rather than exact numbers.

This assay concerns KB. As to the kind of experiment: Cytotoxicity against human KB cells. The assay is classed as functional. The settings on record: read-out: ED50 (the source's name).
As for `COc1c(OC)c2c3c(nccc3c1OC)C(=O)c1ccccc1-2` [HOMOMOSCHATOLINE], the EC50 is above 10 µg/mL.

As to `O=C1c2ccccc2-c2c3c(cc4ccnc1c24)OCO3` [LIRIODENINE], the EC50 amounted to 3.1 µg/mL (≈ 11.3 µM).

Take `COc1cc2ccnc3c2c(c1OC)-c1ccccc1C3=O` [LYSICAMINE]: the EC50 is above 10 µg/mL.
